Literature values in PubChem BioAssay AID977608.

Target: Cruzipain (Trypanosoma cruzi) (UniProt P25779)
Test: protein-ligand inhibition affinities from structures – PDB-derived complexes (AID 977608)
Conditions: literature IC50, protein: cruzain, chain 3I06_A, PDB entry 3I06

CCn1cnc2c(Nc3cc(F)cc(F)c3)nc(C=N)nc21
IC50: 0.2 nM
